Source: US12240862B2, “Inhibitors of peptidylarginine deiminases” (Gilead Sciences, Inc., priority 2020, dated 2025)

target: T1, human PAD4 (Homo sapiens, UniProt Q9UM07); assay: In vitro PAD4 BAEE biochemical assay; settings: human PAD4, BAEE substrate; 5 nM PAD4, 2 mM calcium chloride, 3 mM BAEE; geometric mean of multiple experiments
T1 construct: human PAD4 (NM_012387), A2P663, was PCR amplified; His-SUMO (N, cleaved yes); made in house; host or cells: E. coli BL21(DE3)
In short: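 Ammonia release from BAEE deimination monitored by o-phthalaldehyde amine coupling (1 h, 25 °C) after EDTA stop. Final conditions: 5 nM tag-free recombinant human PAD4 (E. coli), 2 mM CaCl2, 3 mM BAEE, pH 7.6 MOPS with DTT; 30 min compound preincubation, then 2 h reaction at 25 °C.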

T1 sequence (Q9UM07 2-663): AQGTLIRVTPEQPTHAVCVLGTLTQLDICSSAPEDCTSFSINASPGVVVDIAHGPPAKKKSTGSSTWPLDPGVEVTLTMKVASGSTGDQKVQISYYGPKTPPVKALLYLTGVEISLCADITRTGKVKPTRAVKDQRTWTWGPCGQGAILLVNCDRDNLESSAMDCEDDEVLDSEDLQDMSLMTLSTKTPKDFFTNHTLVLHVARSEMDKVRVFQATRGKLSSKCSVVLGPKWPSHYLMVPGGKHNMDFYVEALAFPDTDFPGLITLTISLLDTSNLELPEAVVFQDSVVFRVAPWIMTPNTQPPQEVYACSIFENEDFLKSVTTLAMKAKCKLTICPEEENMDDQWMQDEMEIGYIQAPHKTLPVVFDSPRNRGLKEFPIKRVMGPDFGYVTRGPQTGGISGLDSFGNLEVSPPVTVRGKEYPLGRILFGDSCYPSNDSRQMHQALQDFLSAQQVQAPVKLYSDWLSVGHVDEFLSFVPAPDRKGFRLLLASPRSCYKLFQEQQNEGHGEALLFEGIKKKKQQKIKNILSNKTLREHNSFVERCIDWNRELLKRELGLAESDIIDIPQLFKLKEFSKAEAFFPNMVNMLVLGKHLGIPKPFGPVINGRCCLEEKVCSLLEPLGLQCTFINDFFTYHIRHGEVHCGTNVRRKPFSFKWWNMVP

`COc1cc(C(=O)N2[C@H]3CC[C@@H]2[C@H](N)C3)cc2nc(-c3cc4ccc([C@@H](C)NC(=O)c5cnn(C6CC6)c5)nc4n3CC3CC3)c(C)n12` [Example 106, ~{N}-[(1~{R})-1-[2-[7-[(1~{R},2~{R},4~{S})-2-amino-7-azabicyclo [2.2.1]heptane-7-carbonyl]-5-methoxy-3-methylimidazo [1,2-a]pyridin-2-yl]-1-(cyclopropylmethyl)pyrrolo [2,3-b]pyridin-6-yl]ethyl]-1-cyclopropylpyrazole-4-carboxamide] and `COc1cc(C(=O)N2[C@H]3CC[C@@H]2[C@H](N)C3)cc2nc(-c3cc4ccc([C@@H](C)NC(=O)c5cc6n(c5)CCOC6)nc4n3CC3CC3)c(C)n12` [Example 62, ~{N}-[(1~{R})-1-[2-[7-[(1~{R},2~{R}, 4~{S})-2-amino-7-azabicyclo[2.2.1]heptane-7-carbonyl]-5-methoxy-3-methylimidazo [1,2-a]pyridin-2-yl]-1-(cyclopropylmethyl)pyrrolo[2,3-b]pyridin-6-yl]ethyl]-3,4-dihydro-1~{H}-pyrrolo [2,1-c][1,4]oxazine-7-carboxamide] are within 1.5-fold of each other in IC50: 40.6 nM for the first, 48.3 nM for the second.

`COc1cc(C(=O)N2[C@H]3CC[C@@H]2[C@H](N)C3)cc2nc(-c3cc4ccc([C@@H](C)NC(=O)N5CC(C)(C(=O)O)C5)nc4n3CC3CC3)c(C)n12` [Example 230, 1-[[(1~{R})-1-[2-[7-[(1~{R},2~{R},4~{S})-2-amino-7-azabicyclo[2.2.1]heptane-7-carbonyl]-5-methoxy-3-methylimidazo [1,2-a]pyridin-2-yl]-1-(cyclopropylmethyl)pyrrolo [2,3-b]pyridin-6-yl]ethyl]carbamoyl]-3-methylazetidine-3-carboxylic acid] and `COc1cc(C(=O)N2[C@H]3CC[C@@H]2[C@H](N)C3)cc2nc(-c3cc4ccc([C@@H](C)NC(=O)C5(C)CC5)nc4n3CC3CC3)c(C)n12` [Example 151, ~{N}-[(1~{R})-1-[2-[7-[(1~{R},2~{R},4~{S})-2-amino-7-azabicyclo[2.2.1]heptane-7-carbonyl]-5-methoxy-3-methylimidazo [1,2-a]pyridin-2-yl]-1-(cyclopropylmethyl)pyrrolo [2,3-b]pyridin-6-yl]ethyl]-1-methylcyclopropane-1-carboxamide] are within 1.5-fold of each other in IC50: 70 nM for the first, 59.8 nM for the second.

First: COc1cc(C(=O)N2[C@H]3CC[C@@H]2[C@H](N)C3)cc2nc(-c3cc4ccc([C@@H](C)NC(=O)C56CC(C#N)(C5)C6)nc4n3CC3CC3)c(C3CC3)n12 [Example 140, ~{N}-[(1~{R})-1-[2-[7-[(1~{R},2~{R},4~{S})-2-amino-7-azabicyclo[2.2.1]heptane-7-carbonyl]-3-cyclopropyl-5-methoxyimidazo[1,2-a]pyridin-2-yl]-1-(cyclopropylmethyl)pyrrolo[2,3-b]pyridin-6-yl]ethyl]-3-cyanobicyclo[1.1.1]pentane-1-carboxamide]
Second: COc1cc(C(=O)N2[C@H]3CC[C@@H]2[C@H](N)C3)cc2nc(-c3cc4ccc([C@@H](C)NC(=O)NC5CCOCC5)nc4n3CC3CC3)c(C)n12 [Example 214, 1-[(1~{R})-1-[2-[7-[(1~{R},2~{R},4~{S})-2-amino-7-azabicyclo[2.2.1]heptane-7-carbonyl]-5-methoxy-3-methylimidazo [1,2-a]pyridin-2-yl]-1-(cyclopropylmethyl)pyrrolo [2,3-b]pyridin-6-yl]ethyl]-3-(oxan-4-yl)urea]
The IC50 of the first is 2.6-fold higher: 118 nM for the first, 45 nM for the second.

Going from `COc1cc(C(=O)N2[C@H]3CC[C@@H]2[C@H](N)C3)cc2nc(-c3cc4ccc([C@@H](C)NC(=O)N5CCC(F)(F)C5)nc4n3CC3CC3)c(C)n12` [Example 243, ~{N}-[(1~{R})-1-[2-[7-[(1~{R},2~{R},4~{S})-2-amino-7-azabicyclo[2.2.1]heptane-7-carbonyl]-5-methoxy-3-methylimidazo [1,2-a]pyridin-2-yl]-1-(cyclopropylmethyl)pyrrolo [2,3-b]pyridin-6-yl]ethyl]-3,3-difluoropyrrolidine-1-carboxamide] to `COc1cc(C(=O)N2[C@H]3CC[C@@H]2[C@H](N)C3)cc2nc(-c3cc4ccc([C@@H](C)NC(=O)N5CCOC[C@H]5C(F)(F)F)nc4n3CC3CC3)c(C)n12` [Example 200, (3~{S})-~{N}-[(1~{R})-1-[2-[7-[(1~{R},2~{R},4~{S})-2-amino-7-azabicyclo[2.2.1]heptane-7-carbonyl]-5-methoxy-3-methylimidazo [1,2-a]pyridin-2-yl]-1-(cyclopropylmethyl)pyrrolo [2,3-b]pyridin-6-yl]ethyl]-3-(trifluoromethyl)morpholine-4-carboxamide], the IC50 falls from 80.7 nM to 44.1 nM (1.8-fold).

`COc1cc(C(=O)N2[C@H]3CC[C@@H]2[C@H](N)C3)cc2nc(-c3cc4ccc([C@@H](C)NC(=O)c5ccc(C)nc5)nc4n3CC3CC3)c(C)n12` [Example 49, ~{N}-[(1~{R})-1-[2-[7-[(1~{R},2~{R},4~{S})-2-amino-7-azabicyclo[2.2.1]heptane-7-carbonyl]-5-methoxy-3-methylimidazo [1,2-a]pyridin-2-yl]-1-(cyclopropylmethyl)pyrrolo[2,3-b]pyridin-6-yl]ethyl]-6-methylpyridine-3-carboxamide] and `COc1cc(C(=O)N2[C@H]3CC[C@@H]2[C@H](N)C3)cc2nc(-c3cc4ccc([C@@H](C)NC(=O)CCC(=O)O)nc4n3CC3CC3)c(C)n12` [Example 163, 4-[[(1~{R})-1-[2-[7-[(1~{R},2~{R},4~{S})-2-amino-7-azabicyclo[2.2.1]heptane-7-carbonyl]-5-methoxy-3-methylimidazo [1,2-a]pyridin-2-yl]-1-(cyclopropylmethyl)pyrrolo [2,3-b]pyridin-6-yl]ethyl]amino]-4-oxobutanoic acid] are within 1.5-fold of each other in IC50: 22.2 nM for the first, 19.1 nM for the second.

First: COc1cc(C(=O)N2[C@H]3CC[C@@H]2[C@H](N)C3)cc2nc(-c3cc4ccc(C(CC(=O)N5CCCC5)C5CC5)nc4n3CC3CC3)c(C)n12 (stereo partly drawn) [Example 542, 3-[2-[7-[(1~{R},2~{R}, 4~{S})-2-amino-7-azabicyclo[2.2.1]heptane-7-carbonyl]-5-methoxy-3-methylimidazo[1,2-a]pyridin-2-yl]-1-(cyclopropylmethyl)pyrrolo[2,3-b]pyridin-6-yl]-3-cyclopropyl-1-pyrrolidin-1-ylpropan-1-one]
Second: COc1cc(C(=O)N2[C@H]3CC[C@@H]2[C@H](N)C3)cc2nc(-c3cc4ccc(N5c6ccccc6CCS5(=O)=O)nc4n3CC3CC3)c(C)n12 [Example 468, [(1~{R},2~{R},4~{S})-2-amino-7-azabicyclo [2.2.1]heptan-7-yl]-[2-[1-(cyclopropylmethyl)-6-(2,2-dioxo-3,4-dihydro-2$l^6,1-benzothiazin-1-yl)pyrrolo[2,3-b]pyridin-2-yl]-5-methoxy-3-methylimidazo[1,2-a]pyridin-7-yl]methanone]
The IC50 of the first is 2-fold lower: 119 nM for the first, 238 nM for the second. The first is the more potent here.

Compared with `COc1cc(C(=O)N2C[C@H]3C[C@H](O)[C@@H]2[C@@H]3N)cc2nc(-c3cc4ccc(N(C(F)F)S(C)(=O)=O)nc4n3CC3CC3)c(C)n12` [Example 378, N-[2-[7-[(1S,4R,6S,7R)-7-amino-6-hydroxy-2-azabicyclo[2.2.1]heptane-2-carbonyl]-5-methoxy-3-methyl-imidazo [1,2-a]pyridin-2-yl]-1-(cyclopropylmethyl)pyrrolo [2,3-b]pyridin-6-yl]-N-(difluoromethyl) methanesulfonamide], `COc1cc(C(=O)N2C[C@@H]3CC[C@H]2[C@@H](N)C3)cc2nc(-c3cc4ccc(N(C(F)F)S(C)(=O)=O)nc4n3CC3CC3)c(C)n12` [Example 375, ~{N}-[2-[7-[(1~{S},4~{R}, 6~{S})-6-amino-2-azabicyclo[2.2.2]octane-2-carbonyl]-5-methoxy-3-methylimidazo[1,2-a]pyridin-2-yl]-1-(cyclopropylmethyl)pyrrolo [2,3-b]pyridin-6-yl]-~{N}-(difluoromethyl) methanesulfonamide] is 8-fold higher in IC50: 341 nM for the first, 2730 nM for the second.

Compared with `CCc1ccc2cc(-c3nc4cc(C(=O)N5C[C@]6(N)CC[C@H]5C6)cc(OC)n4c3C)n(CC3CC3)c2n1` [Example 587, [(1~{S},4~{S})-4-amino-2-azabicyclo[2.2.1]heptan-2-yl]-[2-[1-(cyclopropylmethyl)-6-ethylpyrrolo[2,3-b]pyridin-2-yl]-5-methoxy-3-methylimidazo[1,2-a]pyridin-7-yl]methanone], `COc1cc(C(=O)N2CC[C@H]3CCN[C@H]3C2)cc2nc(-c3cc4ccc(N(C(F)F)S(C)(=O)=O)nc4n3CC3CC3)c(C)n12` [Example 420, ~{N}-[2-[7-[(3~{a}~{R},7~{a}~{R})-1,2,3,3~{a},4,5,7,7~{a}-octahydropyrrolo[2,3-c]pyridine-6-carbonyl]-5-methoxy-3-methylimidazo [1,2-a]pyridin-2-yl]-1-(cyclopropylmethyl)pyrrolo [2,3-b]pyridin-6-yl]-~{N}-(difluoromethyl) methanesulfonamide] is 74-fold lower in IC50: 4460 nM for the first, 60.6 nM for the second. The second is the more potent here.

Going from `COc1cc(C(=O)N2C[C@@H]3CCCN[C@@H]3C2)cc2nc(-c3cc4ccc(N(C(F)F)S(C)(=O)=O)nc4n3CC3CC3)c(C)n12` [Example 337, ~{N}-[2-[7-[(4~{a}~{S}, 7~{a}~{S})-1,2,3,4,4~{a},5,7,7~{a}-octahydropyrrolo[3,4-b]pyridine-6-carbonyl]-5-methoxy-3-methylimidazo[1,2-a]pyridin-2-yl]-1-(cyclopropylmethyl)pyrrolo [2,3-b]pyridin-6-yl]-~{N}-(difluoromethyl) methanesulfonamide] to `CCc1ccc2cc(-c3nc4cc(C(=O)N5CCC[C@@H](N)C5)ccn4c3C3CC3)n(CC3CC3)c2n1` [Example 597, [(3~{R})-3-aminopiperidin-1-yl]-[3-cyclopropyl-2-[1-(cyclopropylmethyl)-6-ethylpyrrolo[2,3-b]pyridin-2-yl]imidazo[1,2-a]pyridin-7-yl]methanone], the IC50 falls from 12100 nM to 299 nM (40-fold).
